Test results from US10821115B2, “Compounds that inhibit Mcl-1 protein” (priority 2017, dated 2020).
pIC50: −log10 of the molar value. Where two headings read alike, the source gives them in different places.

Legend:
[1] = target: recombinant human Mcl-1 (residues 171-327) / Bim interaction (Homo sapiens (Human), UniProt Q07820); assay: biochemical; assay type: binding; conditions: TR-FRET, Mcl-1(171-327) / biotin-Bim (51-76); read-out: Mcl-1 HTRF IC50
[2] = tested on: human multiple myeloma cell line, OPM-2; assay: Cell viability assay (OPM-2 10 FBS), CellTiter-Glo; assay type: cell-based
Procedure, shortened: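 Steps: plate cells at 3000/well in 10% FBS growth medium, add serially diluted compound, incubate 16 h at 37 °C with 5% CO2, add detection reagent and read luminescence after 25 min. A 4-parameter logistic model gives IC50.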

[3] = Homo sapiens, OPM-2, 16 h, read-out: OPM-2 10% FBS IC50 IP, OPM-2 cells, 10% FBS, 16 h, CellTiter-Glo
[4] = read-out: OPM-2 10% FBS IC50 IP, OPM-2 cells, 10% FBS, 16 h, CellTiter-Glo

Chain of recombinant human Mcl-1 (residues 171-327) / Bim interaction (Q07820 171-327): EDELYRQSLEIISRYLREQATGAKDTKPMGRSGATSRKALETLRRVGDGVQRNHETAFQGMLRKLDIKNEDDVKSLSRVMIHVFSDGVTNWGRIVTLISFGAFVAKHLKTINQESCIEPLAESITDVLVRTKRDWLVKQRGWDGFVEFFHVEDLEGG

Compound: CO[C@]1(CC2=NC(C)(C)CO2)/C=C/C[C@H](C)[C@@H](C)S(=O)(=O)NC(=O)c2ccc3c(c2)N(C[C@@H]2CC[C@H]21)C[C@@]1(CCCc2cc(Cl)ccc21)CO3 [Example 100380, (1S,3′R,6′R,7′R,8′E,11′S,12′R)-6-chloro-7′-((4,4-dimethyl-4,5-dihydro-1,3-oxazol-2-yl)methyl)-7′-methoxy-11′,12′-dimethyl-3,4-dihydro-2H,15′H-spiro[naphthalene-1,22′-[20]oxa[13]thia[1,14]diazatetracyclo [14.7.2.0~3,6~.0~19,24~]pentacosa[8,16,18,24]tetraen]-15′-one 13′,13′-dioxide]
- pIC50 [1]: 9.68
- pIC50 [2, 3]: 6.86

Compound: CO[C@]1(CCN(C)C)/C=C/C[C@H](C)[C@@H](C)S(=O)(=O)NC(=O)c2ccc3c(c2)N(C[C@@H]2CC[C@H]21)C[C@@]1(CCCc2cc(Cl)ccc21)CO3 [Example 100381, (1S,3′R,6′R,7′R,8′E,11′S,12′R)-6-chloro-7′-(2-(dimethylamino)ethyl)-7′-methoxy-11′,12′-dimethyl-3,4-dihydro-2H,15′H-spiro[naphthalene-1,22′-[20]oxa[13]thia[1,14]diazatetracyclo [14.7.2.0~3,6~.0~19,24~]pentacosa[8,16,18,24]tetraen]-15′-one 13′,13′-dioxide]
- pIC50 [1]: 9.48
- pIC50 [2, 3]: 5.54

Compound: C[C@@H]1[C@@H](C)CCC[C@@](O)(C2CCN(C)CC2)[C@@H]2CC[C@H]2CN2C[C@@]3(CCCc4cc(Cl)ccc43)COc3ccc(cc32)C(=O)NS1(=O)=O [Example 100382, (1S,3′R,6′R,7′R,11′S,12′R)-6-chloro-7′-hydroxy-11′,12′-dimethyl-7′-(1-methyl-4-piperidinyl)-3,4-dihydro-2H,15′H-spiro[naphthalene-1,22′-[20]oxa[13]thia[1,14]diazatetracyclo [14.7.2.0~3,6~.0~19,24~]pentacosa[16,18,24]trien]-15′-one 13′,13′-dioxide]
- pIC50 [1]: 9.33
- pIC50 [2, 4]: 6.51

Compound: C[C@@H]1[C@@H](C)C/C=C/[C@](O)(c2cnccn2)[C@@H]2CC[C@H]2CN2C[C@@]3(CCCc4cc(Cl)ccc43)COc3ccc(cc32)C(=O)NS1(=O)=O [Example 100383, (1S,3′R,6′R,7′R,8′E,11′S,12′R)-6-chloro-7′-hydroxy-11′,12′-dimethyl-7′-(2-pyrazinyl)-3,4-dihydro-2H,15′H-spiro[naphthalene-1,22′-[20]oxa[13]thia[1,14]diazatetracyclo [14.7.2.0~3,6~.0~19,24~]pentacosa[8,16,18,24]tetraen]-15′-one 13′,13′-dioxide]
- pIC50 [1]: 9.58
- pIC50 [2, 3]: 5.46

Compound: C[C@@H]1[C@@H](C)C/C=C/[C@@](O)(c2cccnc2)[C@@H]2CC[C@H]2CN2C[C@@]3(CCCc4cc(Cl)ccc43)COc3ccc(cc32)C(=O)NS1(=O)=O [Example 100384, (1S,3′R,6′R,7′S,8′E,11′S,12′R)-6-chloro-7′-hydroxy-11′,12′-dimethyl-7′-(3-pyridinyl)-3,4-dihydro-2H,15′H-spiro[naphthalene-1,22′-[20]oxa[13]thia[1,14]diazatetracyclo [14.7.2.0~3,6~.0~19,24~]pentacosa[8,16,18,24]tetraen]-15′-one 13′,13′-dioxide]
- pIC50 [1]: 9.09
- pIC50 [2, 3]: 6.14

Compound: C[C@@H]1[C@@H](C)C/C=C/[C@](O)(c2ncccc2F)[C@@H]2CC[C@H]2CN2C[C@@]3(CCCc4cc(Cl)ccc43)COc3ccc(cc32)C(=O)NS1(=O)=O [Example 100385, (1S,3′R,6′R,7′R,8′E,11′S,12′R)-6-chloro-7′-(3-fluoro-2-pyridinyl)-7′-hydroxy-11′,12′-dimethyl-3,4-dihydro-2H,15′H-spiro[naphthalene-1,22′-[20]oxa[13]thia[1,14]diazatetracyclo [14.7.2.0~3,6~.0~19,24~]pentacosa[8,16,18,24]tetraen]-15′-one 13′,13′-dioxide]
- pIC50 [1]: 9.84
- pIC50 [2, 3]: 6.84

Compound: C[C@@H]1[C@@H](C)CCC[C@@](O)(C2CCN(C)CC2)[C@@H]2CC[C@H]2CN2C[C@@]3(CCCc4cc(Cl)ccc43)COc3ccc(cc32)C(=O)NS1(=O)=O [Example 100386, (1S,3′R,6′R,7′R,11′S,12′R)-6-chloro-7′-hydroxy-11′,12′-dimethyl-7′-(1-methyl-4-piperidinyl)-3,4-dihydro-2H,15′H-spiro[naphthalene-1,22′-[20]oxa[13]thia[1,14]diazatetracyclo [14.7.2.0~3,6~.0~19,24~]pentacosa[16,18,24]trien]-15′-one 13′,13′-dioxide]
- pIC50 [1]: 8.40
- pIC50 [2, 4]: 5.14

Compound: C[C@@H]1[C@@H](C)CCC[C@](O)(C2CCN(C)CC2)[C@@H]2CC[C@H]2CN2C[C@@]3(CCCc4cc(Cl)ccc43)COc3ccc(cc32)C(=O)NS1(=O)=O [Example 100387, (1S,3′R,6′R,7′S,11′S,12′R)-6-chloro-7′-hydroxy-11′,12′-dimethyl-7′-(1-methyl-4-piperidinyl)-3,4-dihydro-2H,15′H-spiro[naphthalene-1,22′-[20]oxa[13]thia[1,14]diazatetracyclo [14.7.2.0~3,6~.0~19,24~]pentacosa[16,18,24]trien]-15′-one 13′,13′-dioxide]
- pIC50 [1]: 9.76
- pIC50 [2, 3]: 5.42

Compound: C[C@@H]1[C@@H](C)C/C=C/[C@@](O)(C#CCN2CCS(=O)(=O)CC2)[C@@H]2CC[C@H]2CN2C[C@@]3(CCCc4cc(Cl)ccc43)COc3ccc(cc32)C(=O)NS1(=O)=O [Example 100388, (1S,3′R,6′R,7′S,8′E,11′S,12′R)-6-chloro-7′-(3-(1,1-dioxido-4-thiomorpholinyl)-1-propyn-1-yl)-7′-hydroxy-11′,12′-dimethyl-3,4-dihydro-2H,15′H-spiro[naphthalene-1,22′-[20]oxa[13]thia[1,14]diazatetracyclo [14.7.2.0~3,6~.0~19,24~]pentacosa[8,16,18,24]tetraen]-15′-one 13′,13′-dioxide]
- pIC50 [1]: 8.93
- pIC50 [2, 4]: 5.67

Compound: C[C@@H]1[C@@H](C)C/C=C/[C@@](O)(C#CCN2CCS(=O)(=O)CC2)[C@@H]2CC[C@H]2CN2C[C@@]3(CCCc4cc(Cl)ccc43)COc3ccc(cc32)C(=O)NS1(=O)=O [Example 100389, (1S,3′R,6′R,7′S,8′E,11′S,12′R)-6-chloro-7′-(3-(1,1-dioxido-4-thiomorpholinyl)-1-propyn-1-yl)-7′-hydroxy-11′,12′-dimethyl-3,4-dihydro-2H,15′H-spiro[naphthalene-1,22′-[20]oxa[13]thia[1,14]diazatetracyclo [14.7.2.0~3,6~.0~19,24~]pentacosa[8,16,18,24]tetraen]-15′-one 13′,13′-dioxide]
- pIC50 [1]: 10.00
- pIC50 [2, 4]: 6.94

Compound: CO[C@@]1(c2cccnc2)/C=C/C[C@H](C)[C@@H](C)S(=O)(=O)NC(=O)c2ccc3c(c2)N(C[C@@H]2CC[C@H]21)C[C@@]1(CCCc2cc(Cl)ccc21)CO3 [Example 100391, (1S,3′R,6′R,7′S,8′E,11′S,12′R)-6-chloro-7′-methoxy-11′,12′-dimethyl-7′-(3-pyridinyl)-3,4-dihydro-2H,15′H-spiro[naphthalene-1,22′-[20]oxa[13]thia[1,14]diazatetracyclo [14.7.2.0~3,6~.0~19,24~]pentacosa[8,16,18,24]tetraen]-15′-one 13′,13′-dioxide]
- pIC50 [1]: 9.36
- pIC50 [2, 3]: 6.55

Compound: CO[C@@]1(CCN(C)C)/C=C/C[C@H](C)[C@@H](C)S(=O)(=O)NC(=O)c2ccc3c(c2)N(C[C@@H]2CC[C@H]21)C[C@@]1(CCCc2cc(Cl)ccc21)CO3 [Example 100393, (1S,3′R,6′R,7′S,8′E,11′S,12′R)-6-chloro-7′-(2-(dimethylamino)ethyl)-7′-methoxy-11′,12′-dimethyl-3,4-dihydro-2H,15′H-spiro[naphthalene-1,22′-[20]oxa[13]thia[1,14]diazatetracyclo [14.7.2.0~3,6~.0~19,24~]pentacosa[8,16,18,24]tetraen]-15′-one 13′,13′-dioxide]
- pIC50 [1]: 9.79
- pIC50 [2, 3]: 6.68

Compound: C[C@@H]1[C@@H](C)C/C=C/[C@@](O)(C#CCO)[C@@H]2CC[C@H]2CN2C[C@@]3(CCCc4cc(Cl)ccc43)COc3ccc(cc32)C(=O)NS1(=O)=O [Example 100394, (1S,3′R,6′R,7′S,8′E,11′S,12′R)-6-chloro-7′-hydroxy-7′-(3-hydroxy-1-propyn-1-yl)-11′,12′-dimethyl-3,4-dihydro-2H,15′H-spiro[naphthalene-1,22′-[20]oxa[13]thia[1,14]diazatetracyclo [14.7.2.0~3,6~.0~19,24~]pentacosa[8,16,18,24]tetraen]-15′-one 13′,13′-dioxide]
- pIC50 [1]: 9.62
- pIC50 [2, 4]: 6.21

Compound: C[C@@H]1[C@@H](C)C/C=C/[C@@](O)(C#CCO)[C@@H]2CC[C@H]2CN2C[C@@]3(CCCc4cc(Cl)ccc43)COc3ccc(cc32)C(=O)NS1(=O)=O [Example 100395, (1S,3′R,6′R,7′S,8′E,11′S,12′R)-6-chloro-7′-hydroxy-7′-(3-hydroxy-1-propyn-1-yl)-11′,12′-dimethyl-3,4-dihydro-2H,15′H-spiro[naphthalene-1,22′-[20]oxa[13]thia[1,14]diazatetracyclo [14.7.2.0~3,6~.0~19,24~]pentacosa[8,16,18,24]tetraen]-15′-one 13′,13′-dioxide]
- pIC50 [1]: 10.25
- pIC50 [2, 4]: 7.40

Compound: COCC1(N(C)C(=O)C[C@]2(OC)/C=C/C[C@H](C)[C@@H](C)S(=O)(=O)NC(=O)c3ccc4c(c3)N(C[C@@H]3CC[C@H]32)C[C@@]2(CCCc3cc(Cl)ccc32)CO4)CC1 [Example 100396, 2-((1S,3′R,6′R,7′S,8′E,11′S,12′R)-6-chloro-7′-methoxy-11′,12′-dimethyl-13′,13′-dioxido-15′-oxo-3,4-dihydro-2H-spiro[naphthalene-1,22′-[20]oxa[13]thia[1,14]diazatetracyclo [14.7.2.0~3,6~.0~19,24~]pentacosa[8,16,18,24]tetraen]-7′-yl)-N-(1-(methoxymethyl)cyclopropyl)-N-methylacetamide]
- pIC50 [1]: 9.57
- pIC50 [2, 3]: 5.83
